Experimental data as given in PubChem BioAssay (NCI).
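Method: 48-hour compound exposure of cells in 96-well plates, five concentrations, linear interpolation of endpoints. The concentration for 50% growth inhibition is given as GI50. TGI denotes the concentration required for complete inhibition of growth.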

Tests used:
Assay in all cases: inhibition of tumour cell growth, NCI panel, 48 h
[1] = tested on: HS 578T breast
[2] = tested on: A498 renal
[3] = tested on: CAKI-1 renal
[4] = tested on: MDA-N
[5] = tested on: MCF7 breast
[6] = tested on: SF-268 CNS
[7] = tested on: PC-3 prostate
[8] = tested on: M14 melanoma
[9] = tested on: OVCAR-4 ovarian
[10] = tested on: HOP-62 NSCLC
[11] = tested on: SR leukemia

SMILES	TGI [1] [µM]	TGI [2] [µM]	TGI [3] [µM]	TGI [4] [µM]	TGI [5] [µM]	TGI [6] [µM]	TGI [7] [µM]	TGI [8] [µM]	TGI [9] [µM]	TGI [10] [µM]	TGI [11] [µM]	GI50 [1] [µM]	GI50 [5] [µM]	GI50 [9] [µM]	GI50 [10] [µM]	GI50 [2] [µM]	GI50 [11] [µM]
COc1cccc2c1CCc1sc(CN3CCN(C)CC3)nc1-2	> 100	> 100	> 100	> 100	> 100	> 100	> 100	> 100	> 100	> 100							
O=C(NC1CCCCC1)N1CCNC1=S	> 100	> 100	> 100	> 100		> 100		> 100	> 100	> 100	> 100						
COC(=O)c1cc(NC(=O)Cn2c3ccccc3c3ccccc32)cn1C	42.4	> 100	> 100	> 100	> 100	> 100	> 100	> 100	74.9	50.6	> 100						
O=c1oc2c(Cl)cc(Cl)cc2cc1-c1cn2c(n1)sc1ccccc12	> 100		> 100	> 100	> 100	> 100	> 100	> 100	> 100	> 100	53.1						
COc1ccc(CNCCN2C(=O)c3ccc4c5c(ccc(c35)C2=O)C(=O)N(CCNCc2ccc(OC)c(OC)c2OC)C4=O)c(OC)c1OC	2.81				1.15				0.146	1.08		0.985	0.222	0.0762	0.248		
Clc1ccc(CCNCCNC2(c3cc4ccccc4s3)CCCCC2)cc1Cl	4.52	3.17	3.42	3.33	3.18	3.37	3.11	3.97	3.17	2.6	4.19						
Cc1ccnc2[nH]c(-c3ccc(Cl)cc3)cc(=O)c12	> 100	46.6	> 100	4.59	> 100	> 100	> 100	> 100	> 100	> 93.5	5.97						
CC(C)(C)c1ccc(OCCOc2ccc(C(C)(C)C)cc2NC=O)c(NC=O)c1	42.8	40	> 67.7	27.3	23.2	65.8	> 100	20.7	54.2	28	> 48						
C=C1C(O)C2OC(=O)C(=C)C2C(OC(=O)/C(C)=C/C)CC2(C)OC2C2OC12 (stereo not drawn)	> 100	46.4	26.9	6.02	22.6	> 100	54.4	> 100	> 100	> 100	24.5						
CN1CN(c2ccccc2)C2(CCN(C(=O)OC(C)(C)C)CC2)C1=O	> 100	> 100	> 100	> 100	> 100	> 100	> 100	> 100	> 100	> 100	> 100						
COc1c(C(=O)CC2c3c(cc4oc(C)cc(=O)c4c3OC)OC(=N)C2c2nc3ccccc3[nH]2)c(O)c(OC)c2occc12 (stereo not drawn)	> 100	> 100	> 100	> 100	> 100	> 100	> 100	> 100	> 100	> 100							
COc1cc(/C=[N+](\[O-])c2ccccc2Cl)ccc1OC(=S)S	> 100	> 100	> 100	> 100	> 100	> 100	> 100	> 100	27.8	> 100	> 100						
CN1C(=O)c2c(c3c4ccccc4n(C)c3c3c2c2ccccc2n3C)C1=O		> 100	> 100	> 100	> 100		> 100	> 100	> 100	> 100	> 100						
C[C@]12CC[C@@H]3c4cc(C=O)c(OCc5ccccc5)cc4CC[C@H]3[C@@H]1CCC2OCc1ccccc1 (stereo partly drawn)	> 100	> 100	> 100	> 100	> 100	> 100	> 100	> 100	> 100	> 100	> 100						
COc1cc2ccnc3c2c(c1OC)N(C)C=C3	> 100	> 100	44.8	36.1	44.6	> 100	> 100	68.8	71.2	> 100	64.9						
CCN1CCC(O)(/C=C/c2ccc(Cl)c(Cl)c2)C(C(=O)/C=C/c2ccc(Cl)c(Cl)c2)C1 (stereo not drawn)	2.42	2.91	3.21	2.89	2.67	2.54	1.05	1.76	2.21	2.48							
CCCCCCCCC/C=C1/CC(CO)(COC(=O)C2CCCCC2)OC1=O (stereo not drawn)	> 100	> 100	> 100	> 100	> 100	> 100	> 100	> 100	> 100	> 100	> 100						
Nc1nc(Cl)cc(OCC2(CO)CCCCC2)n1	> 100	> 100		> 100	> 100	> 100	> 100		> 100	> 100	> 100						
O=S1(=O)OCCOS(=O)(=O)C1C1c2ccccc2-c2ccccc21	> 100	> 100	98.5	> 100	> 100	> 100	> 100	> 100	52.4	> 100							
CC(NC(=O)C(NC(=O)C(NC(=O)C(F)(F)F)C(C)C)C(C)C)C(=O)Oc1c(Cl)c(Cl)c(Cl)c(Cl)c1Cl (stereo not drawn)	> 100	> 100	> 100	> 100	> 100	> 100	> 100	> 100	> 100	> 100	> 100						
CCOC(=O)C1=C(C)NC(c2ccccc2)=C(C(=O)OCc2ccccc2)C1C#Cc1ccccc1 (stereo not drawn)	> 100	> 100	57.4	> 100	> 100	> 100	> 100	> 100		> 100	> 100						

SMILES	TGI [1] [µM]	TGI [2] [µM]	TGI [3] [µM]	TGI [4] [µM]	TGI [5] [µM]	TGI [6] [µM]	TGI [7] [µM]	TGI [8] [µM]	TGI [9] [µM]	TGI [10] [µM]	TGI [11] [µM]	GI50 [1] [µM]	GI50 [5] [µM]	GI50 [9] [µM]	GI50 [10] [µM]	GI50 [2] [µM]	GI50 [11] [µM]
CCCC(CCC(=O)O)(CCC(=O)O)[N+](=O)[O-]	> 100		> 100	> 100	> 100	> 100	> 100	> 100			> 100						
Clc1cccc(C=NC23CC4CC(CC(C4)C2)C3)c1Cl	> 10	> 10	> 10	> 10	> 10	> 10	> 10	> 10	> 10	> 10	2.63						
CC(=O)[C@H]1CC[C@@H]2[C@]1(C)CC=C1[C@]23C=C[C@]2(C[C@@H](O)CC[C@]12C)C(C(=O)O)C3C(=O)O (stereo partly drawn)	> 100	> 100	> 100	> 100	> 100	> 100	> 100	> 100	> 100	> 100							
C#CCn1c(=O)c2cc(OC)c(OC)cc2n(CC#C)c1=O	> 10	> 10	> 10	> 10	> 10	> 10	> 10	> 10	> 10	> 10							
C=c1c2ccccc2oc2nc3[nH]c(N)c(C#N)c(N)c3c(=N)c12	86.2	> 100	> 100	> 100	> 100	70.9	66.9	> 100	> 100	> 100							
Cc1ccc2c(=O)cc(-c3ccccc3)[nH]c2n1			> 72.9	0.0999	> 55	> 100	26.7		> 100	> 100							
CSCCC(NOC(=O)Cc1ccccc1)P(=O)(O)c1ccccc1 (stereo not drawn)	> 100		> 100	> 100	> 100		> 100	> 100	> 100	> 100	> 100						
CC(=O)OC1CC[C@@]2(C)C(=CC[C@@H]3[C@@H]2CC[C@]2(C)Nc4c(cnn4-c4ccc(F)cc4)C[C@@H]32)C1 (stereo partly drawn)	> 100	> 83.1	42.8	> 100	> 95.6	> 100	> 100	> 100	> 100	17.8							
COc1ccccc1-c1nc[nH]c1-c1ccccc1OC		> 100	> 100	34.9	> 100	65.3	> 100	78.3	> 100	> 100							
O=C(NC12CC3CC(CC(C3)C1)C2)n1cnc2c(Cl)ncnc21	97.7	> 100	> 100	45.9	> 100	57.4	66.6	50.7		> 100	29						
Cn1c(=Nc2ccccc2[N+](=O)[O-])sc2ccccc21	> 100	> 100	> 100	> 100		> 100	> 100		86.9	48.3	> 100						
O=C(O)C(=Cc1ccc(-c2ccc([N+](=O)[O-])cc2)o1)C(=O)O	> 100	> 100	> 100	> 100	> 100	> 100	> 100	> 100		> 100	> 100						
CCCN1CCN(c2ccc3nc(-c4ccc5nc(-c6ccc(OCC)cc6)[nH]c5c4)[nH]c3c2)CC1	50.1	3.01									2.58	3.59				1.3	0.404
Nc1ccc(Oc2ccc(C34CC5CC(C3)CC(c3ccc(Oc6ccc(N)c(O)c6)cc3)(C5)C4)cc2)cc1O	4.97	36.1	3.57		8.95	2.9	5.69	3.05	5.28	12	> 100						
N#Cc1ccccc1C#C/C=C\C#Cc1ccccn1	38.3		83.1		33.5	48.4	40.6	28.8	> 100	41.4	36.2						
CN(C)CC(O)CNC(=O)Nc1ccccc1 (stereo not drawn)	> 100	> 100	> 100	> 100	> 100	> 100	> 100	> 100	> 100	> 100							
CC(=O)O[C@H]1C(=O)[C@@]2(C)C(C(OC(=O)c3ccccc3)[C@]3(O)CC(OC(=O)C(O)C(NC(=O)c4cccc(Cl)c4)c4ccccc4)C(C)=C1C3(C)C)[C@]1(OC(C)=O)CO[C@@H]1C[C@@H]2O (stereo partly drawn)			> 10	0.334	> 10	> 10	> 10	> 10	> 10	> 10	5.15						
OC[C@@H](O)[C@H](O)[C@H](O)[C@@H](O)C1SCCCS1		> 100	> 100	> 100	> 100	> 100	> 100	> 100	> 100	> 100	> 100						
COC(=O)C1=C(C(=O)OC)SC2(S1)C(C(=O)OC)=C(C(=O)OC)Sc1c2ssc1=O	13.4	3.68	2.93	3.57	4.65	10.3	3.75	3.88	2.79	4.53							
CN(CCCNC(=O)c1[nH]nc2c1ccc1ccccc12)CCCNC(=O)c1[nH]nc2c1ccc1ccccc12	33.5	31.9	33.6	4.52	28.7	28.1	27.9	20.1	37.4	34.6							
